According to article doi:10.1101/2021.11.14.468520v1, “Exploring the kinetic selectivity of antipsychotics for dopamine D2 and 5-HT2A receptors: implications for the prevalence of EPS and receptor occupancy” (biorxiv, 2021):

What was measured:
[1] = biological target: T1, human 5-HT2A receptor (5-HT2AR) (Homo sapiens, UniProt P28223); test: biochemical; design: species or system CHO; conditions: read-out: koff (min^-1)
T1 construct: gene HTR2A; SNAP-tagged (SNAP-Lumi4-Tb labelled) receptor transiently expressed in CHO-K1 cells; membranes; plasmid from CisBio
T1 sequence (P28223 whole entry): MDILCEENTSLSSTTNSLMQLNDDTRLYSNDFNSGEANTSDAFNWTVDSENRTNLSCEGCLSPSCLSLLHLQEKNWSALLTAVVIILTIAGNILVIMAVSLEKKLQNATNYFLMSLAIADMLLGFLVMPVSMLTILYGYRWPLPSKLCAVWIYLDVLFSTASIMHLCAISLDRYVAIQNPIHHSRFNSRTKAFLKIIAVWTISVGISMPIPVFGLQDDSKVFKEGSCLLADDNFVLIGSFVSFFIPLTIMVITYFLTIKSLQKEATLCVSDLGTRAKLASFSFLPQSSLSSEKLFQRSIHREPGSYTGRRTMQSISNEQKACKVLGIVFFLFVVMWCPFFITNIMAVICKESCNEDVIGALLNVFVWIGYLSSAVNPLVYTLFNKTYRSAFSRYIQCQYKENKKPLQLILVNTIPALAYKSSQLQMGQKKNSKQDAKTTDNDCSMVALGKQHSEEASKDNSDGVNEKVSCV

[2] = biological target: T1, human 5-HT2A receptor (5-HT2AR); test: TR-FRET equilibrium competition binding
From the text: TR-FRET equilibrium competition binding on human 5-HT2A receptor (5-HT2AR)

[3] = biological target: T1, human 5-HT2A receptor (5-HT2AR); test: TR-FRET saturation binding; conditions: labelled compound; CHO membranes; […] GppNHp, pH […]; equilibrium, […] min

Row | Molecule | koff [1] | Ki [2] | Kd [3]
1 | CN1CC2c3ccccc3Oc3ccc(Cl)cc3C2C1 (centres unmarked) [Asenapine] | 0.7 min⁻¹ | 0.661 nM | 
2 | Cc1nc2n(c(=O)c1CCN1CCC(c3noc4cc(F)ccc34)CC1)CCCC2O (centres unmarked) [Paliperidone] | 0.23 min⁻¹ | 1.02 nM | 
3 | 4F4PP oxalate-red |  |  | 3.98 ± 0.65 nM
